Assay results from publication PMC9688111, “An Evolutionary Perspective on the Origin, Conservation and Binding Partner Acquisition of Tankyrases” (Biomolecules, 2022).
No end group written: not given here. YFP = yellow fluorescent protein

Legend:
[1] = target: T1, AqTNKS ART (Amphimedon queenslandica, UniProt A0AAN0IWK4); assay: differential scanning fluorimetry (SYPRO orange); format: binding; conditions: […] protein, […] compound, pH […]
T1 construct: catalytic ART domain, Thr968-Thr1181; MBP tag removed by TEV; E. coli BL21(DE3), codon-optimized

[2] = target: T2, TNKS1 ART (Homo sapiens, UniProt O95271); assay: differential scanning fluorimetry (SYPRO orange); format: binding; conditions: […] protein, […] compound, pH […]; adenosine site
T2 construct: gene TNKS; catalytic ART domain; E. coli BL21(DE3)
T2 sequence (O95271 1105-1327 limits assumed): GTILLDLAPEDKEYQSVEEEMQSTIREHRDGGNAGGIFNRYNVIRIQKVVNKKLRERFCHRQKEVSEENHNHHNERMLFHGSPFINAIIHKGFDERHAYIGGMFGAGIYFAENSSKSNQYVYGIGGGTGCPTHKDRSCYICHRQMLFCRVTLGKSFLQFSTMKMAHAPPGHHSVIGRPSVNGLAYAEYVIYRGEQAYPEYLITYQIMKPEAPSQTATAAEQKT

[3] = target: T3, TNKS1 SAM-ART (Homo sapiens, UniProt O95271); assay: auto-PARylation, Western blot; format: biochemical; conditions: […] protein; biotin-NAD+/NAD+ ([…]), […] total; […] h, room temperature; labelled compound as tracer
T3 construct: gene TNKS; SAM and ART domains; N-terminal MBP tag kept; E. coli BL21(DE3)
T3 sequence (O95271 1030-1327 limits assumed): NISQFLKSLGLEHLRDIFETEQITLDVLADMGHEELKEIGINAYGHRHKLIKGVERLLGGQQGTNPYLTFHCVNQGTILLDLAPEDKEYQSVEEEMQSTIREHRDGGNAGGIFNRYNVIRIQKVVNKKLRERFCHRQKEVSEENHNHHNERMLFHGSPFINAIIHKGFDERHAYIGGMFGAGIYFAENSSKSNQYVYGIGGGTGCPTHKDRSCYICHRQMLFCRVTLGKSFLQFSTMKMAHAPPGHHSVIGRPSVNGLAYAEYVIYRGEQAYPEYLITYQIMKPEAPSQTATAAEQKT

[4] = target: T4, AqTNKS SAM-ART (Amphimedon queenslandica, UniProt A0AAN0IWK4); assay: auto-PARylation, Western blot; format: biochemical; conditions: […] protein; biotin-NAD+/NAD+ ([…]), […] total; […] h, room temperature; labelled compound as tracer
T4 construct: SAM and ART domains, Pro889-Thr1181; N-terminal MBP tag kept; E. coli BL21(DE3); forms multimers

[5] = target: T5, CFP-ARC5 (AqTNKS) (Amphimedon queenslandica); assay: FRET
T5 chain: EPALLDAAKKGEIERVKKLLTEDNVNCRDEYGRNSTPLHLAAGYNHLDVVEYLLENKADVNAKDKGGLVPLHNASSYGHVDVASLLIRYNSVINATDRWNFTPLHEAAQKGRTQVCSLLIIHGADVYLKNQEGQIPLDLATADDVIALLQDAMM

T1 sequence (A0AAN0IWK4 entry or part of it): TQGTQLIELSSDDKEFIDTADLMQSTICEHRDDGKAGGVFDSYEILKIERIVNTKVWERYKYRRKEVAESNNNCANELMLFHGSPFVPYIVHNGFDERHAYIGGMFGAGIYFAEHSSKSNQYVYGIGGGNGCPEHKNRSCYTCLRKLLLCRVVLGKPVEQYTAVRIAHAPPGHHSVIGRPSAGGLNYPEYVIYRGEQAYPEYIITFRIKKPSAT
T4 sequence (A0AAN0IWK4 entry or part of it): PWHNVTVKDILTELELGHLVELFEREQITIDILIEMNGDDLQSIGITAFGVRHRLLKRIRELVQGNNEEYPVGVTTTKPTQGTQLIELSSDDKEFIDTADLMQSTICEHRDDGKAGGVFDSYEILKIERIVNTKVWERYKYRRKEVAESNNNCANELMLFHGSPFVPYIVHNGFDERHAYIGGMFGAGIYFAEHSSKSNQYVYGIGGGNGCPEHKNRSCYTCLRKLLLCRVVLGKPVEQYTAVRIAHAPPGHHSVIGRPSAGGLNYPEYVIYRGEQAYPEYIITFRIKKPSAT

With `CS(=O)(=O)c1ccc(-c2nnc(/C=C/c3nnc(-c4ccc(C#N)cc4)o3)n2-c2ccccc2Cl)nc1` [G007-LK] as the molecule, how does the Tm shift ([1]; adenosine site) read?
The Tm shift was “For all inhibitors, the melting temperatures for both TNKS1 and AqTNKS were similarly increased”.

What about the Tm shift [2] of the same molecule?
The Tm shift was “For all inhibitors, the melting temperatures for both TNKS1 and AqTNKS were similarly increased”.

How did the Tm shift ([1]; nicotinamide site) turn out when `O=c1[nH]c(-c2ccc(C(F)(F)F)cc2)nc2c1CSCC2` [XAV939] was run?
The Tm shift was “For all inhibitors, the melting temperatures for both TNKS1 and AqTNKS were similarly increased”.

What does the source list for `NC(=O)c1ccc[n+]([C@@H]2O[C@H](COP(=O)(O)OP(=O)(O)OC[C@H]3O[C@@H](n4cnc5c(N)ncnc54)[C@H](O)[C@@H]3O)[C@@H](O)[C@H]2O)c1` [NAD^+]?
auto-PARylation, Western blot [3]: PARylation of the proteins was clearly detected for the SAM-ART constructs of AqTNKS and TNKS1; auto-PARylation, Western blot [4]: PARylation of the proteins was clearly detected for the SAM-ART constructs of AqTNKS and TNKS1

With `Cc1cc(N2C[C@@H](C)N[C@@H](C)C2)ncc1-c1ccc(-c2nc3c(ccn3C)c(=O)[nH]2)cc1` [AZ6102] as the molecule, how does the Tm shift ([1]; nicotinamide site, compound named in Results but not in the Methods list) read?
The Tm shift was “For all inhibitors, the melting temperatures for both TNKS1 and AqTNKS were similarly increased”.

`COc1ccc(C(=O)C2CCN(CC(=O)N(Cc3nc4c(c(=O)[nH]3)COCC4)CC3CC3)CC2)cc1` [NVP-TNKS656] was tested. Which Tm shift ([1]; dual site) did it give?
The Tm shift was “For all inhibitors, the melting temperatures for both TNKS1 and AqTNKS were similarly increased”.

For `O=c1[nH]nc2c3c(cccc13)NC(CN1Cc3ccccc3C1)=N2` [E7449], which Tm shift ([1]; nicotinamide site) is on record?
The Tm shift was “For all inhibitors, the melting temperatures for both TNKS1 and AqTNKS were similarly increased”.

B1: YFP-REAGDGEE (peptide)
chain: {YFP}-REAGDGEE
B1 was tested. Which Kd [5] did it give?
The Kd was 98.5 nM.
